Assay [1] has as its target T1, C-C chemokine receptor type 4 (Homo sapiens, UniProt P51679).
T1 sequence (P51679 whole entry): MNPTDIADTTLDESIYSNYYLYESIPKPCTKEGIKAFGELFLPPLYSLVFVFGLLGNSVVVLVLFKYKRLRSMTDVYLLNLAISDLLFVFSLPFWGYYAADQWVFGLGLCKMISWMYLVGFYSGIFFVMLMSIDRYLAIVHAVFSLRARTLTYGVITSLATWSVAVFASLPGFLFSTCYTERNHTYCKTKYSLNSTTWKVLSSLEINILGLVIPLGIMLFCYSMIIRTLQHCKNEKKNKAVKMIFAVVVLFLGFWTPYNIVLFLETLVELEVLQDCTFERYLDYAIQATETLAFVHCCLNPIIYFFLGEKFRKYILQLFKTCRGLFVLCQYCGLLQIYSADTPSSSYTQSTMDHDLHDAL
Briefly: Antagonist activity at human CCR4 receptor by [35S]GTPgammaS binding assay. In kind it is functional. Background: Binding of GTPγS marks nucleotide exchange on a G protein.

Assay [2] concerns the target T2, C-C chemokine receptor type 4 (Mus musculus) (UniProt P51680).
T2 sequence (whole entry): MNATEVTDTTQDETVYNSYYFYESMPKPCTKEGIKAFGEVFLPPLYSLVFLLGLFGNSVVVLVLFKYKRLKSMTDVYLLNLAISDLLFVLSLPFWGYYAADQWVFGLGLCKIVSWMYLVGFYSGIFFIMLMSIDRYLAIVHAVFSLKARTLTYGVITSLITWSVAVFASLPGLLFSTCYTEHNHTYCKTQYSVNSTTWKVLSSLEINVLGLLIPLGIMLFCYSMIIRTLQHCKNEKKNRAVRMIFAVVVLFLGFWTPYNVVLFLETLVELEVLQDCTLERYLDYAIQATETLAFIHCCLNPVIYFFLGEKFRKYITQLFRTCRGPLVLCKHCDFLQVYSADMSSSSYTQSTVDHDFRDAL
Briefly: Antagonist activity at mouse CCR4 receptor assessed as inhibition of CCL22-induced chemotaxis at 1 uM by bioluminescent assay. In kind it is functional.

Assay [3] has as its target T3, C-C chemokine receptor type 4 (Homo sapiens) (UniProt P51679).
T3 sequence (whole entry): T1 sequence (P51679 whole entry)
Briefly: Antagonist activity at human CCR4 receptor assessed as inhibition of CCL22-induced chemotaxis at 1 uM by bioluminescent assay. It counts as functional.

Assay [4] deals with T1, C-C chemokine receptor type 4. As to the kind of experiment: Displacement of […]CCL22 from human CCR4 receptor by scintillation proximity assay.
The next assay has as its system Mus musculus. As to the kind of experiment: Antiinflammatory activity against oxazolone-induced contact hypersensitivity in acute dermatitis BALB/c mouse model assessed as inhibition of ear swelling at 30 mg/kg, sc administered twice daily before 0.5 hrs and after 8 hrs of oxazolone challenge assessed after 24 hrs. The note with it: route subcutaneous. It counts as functional.

Regarding `COc1cc2nc(N3CCCN(C4CCCCC4)CC3)nc(Nc3ccc(Cl)cc3)c2cc1OC`, in assay [1], the IC50 is 550 nM.

In the case of `COc1cc2nc(N3CCC(N(C)CCCCO)CC3)nc(Nc3ccc(Cl)cc3)c2cc1OC`, the IC50 in assay [1] was found to be 61 nM. Further, in assay [2], the inhibition came to 42%.

Take `COc1cc2nc(N3CCCN(CCN4CCCC4)CC3)nc(Nc3ccc(Cl)cc3)c2cc1OC`: the IC50 in assay [1] worked out at 150 nM.

`COc1cc2nc(N3CCCN(CCN4CCCCC4)CC3)nc(Nc3ccc(Cl)cc3)c2cc1OC` yielded an IC50 in assay [1] of 130 nM.

`COc1cc2nc(N3CCC(N(C)CCCO)CC3)nc(Nc3ccc(Cl)cc3)c2cc1OC`: the IC50 in assay [1] was determined as 43 nM. Also, the inhibition in assay [2] was 32%.

As for `COc1cc2nc(N3CCC(N(C)CCO)CC3)nc(Nc3ccc(Cl)cc3)c2cc1OC`, the inhibition in assay [3] worked out at 47%. In assay [1], this compound showed an IC50 of 98 nM.

The compound `COc1cc2nc(N3CCC(N4CCCC4)CC3)nc(Nc3ccc(F)c(F)c3)c2cc1OC` registered an IC50 in assay [1] of 25 nM.

As for `COc1cc2nc(N3CCC(N4CCCC4)CC3)nc(Nc3cccc(Br)c3)c2cc1OC`, the values for the inhibition in assay [3] and in assay [2] were 36% and 11%, respectively. Moreover, the IC50 in assay [1] was 220 nM; in assay [4], 510 nM.

`COc1cc2nc(N3CCC(N4CCCC4)CC3)nc(Nc3ccc(F)cc3)c2cc1OC`: the IC50 in assay [1] is 31 nM.

`CCN(CC)CCN1CCCN(c2nc(Nc3ccc(Cl)cc3)c3cc(OC)c(OC)cc3n2)CC1`: the inhibition in assay [3] came out at 15%; in assay [2], 42%. Besides, the half-maximal inhibitory concentration (IC50) in assay [1] turned out to be 92 nM.

With `COc1cc2nc(N3CCC(N4CCCC4)CC3)nc(Nc3ccc(Cl)cc3)c2cc1OC`, in the assay on Mus musculus, the inhibition in vivo at 30 mg/kg came to 42.5%. Also, the IC50 in assay [1] came out at 24 nM; in assay [4], 150 nM.

Usually IC50 stands for the concentration at which inhibition is half-maximal. The low end stands for greater potency in that assay, the high end for weaker potency in that assay. What is called inhibition is the relative decrease from the control value, in per cent. In general, inhibition in vivo refers to how much of the control response was suppressed.

(Values after ChEMBL document CHEMBL1139410, “Potent CCR4 antagonists: synthesis, evaluation, and docking study of 2,4-diaminoquinazolines” (Bioorg Med Chem, 2008).)
